US6440978B2, “Therapeutic agent for dermatitis” (Nippon Zoki Pharmaceutical Co., Ltd., priority 2000, dated 2002)

Legend:
[1] = test system: antigen-induced swelling reaction in a mouse ear; experiment: Suppressive action against antigen-induced swelling reaction in a mouse ear; format: in vivo, BALB/c female mice
Experimental: (§1) Seven week old BALB/c female (SPF) mice of were selected as subjects. According to a method of Tanaka, et al. (Allergy, 46, pages 42-48(1997)), egg white albumin (final concentration: 2 μg/mL) and aluminum hydroxide gel (final concentration: 10 mg/mL) were suspended in physiological saline and 0.5 mL of the suspension was administered to effect intraperitoneal sensitization on the first day of the test. On the 14th day of the test, an additional sensitization was carried out under the same conditions. Further, on the 28th day of the test, 25 μL of egg albumin (a 20 μg/mL solution in physiological saline) was intradermally administered to the right ear of a mouse to induce a swelling reaction.
This swelling reaction reached its peak at 4 hours after the challenge by the antigen. Even after 24 to 48 hours, a significant swelling reaction was noted as compared with the control in which antigen was merely challenged (not sensitized). […] On the contrary, the swelling from 24 to 48 hours after the challenge is thought to be the so-called delayed-type swelling reaction accompanied by infiltration of eosinophils, neutrophils and lymphocytes. In addition, a flare-up reaction having a peak at 24 hours after the challenge appeared on the ear of the antigen-induced site. Like swelling, flare-up is an important symptom of inflammation. Although the mechanism of the flare-up reaction is ambiguous, it may be a flare-up reaction of a delayed type in view of the time course of its expression. As such, this model animal in which the inflammation of both immediate and delayed types are induced is appropriate as a model animal for atopic dermatitis. In the following experiment, the effectiveness of the therapeutic agent for dermatitis according to the present invention was tested using the said model animal.
Each of a vehicle (control) and a test agent (containing the compound of the present invention or a positive control) was applied to the antigen-induced site (right auricle) of a mouse. A swelling reaction was induced in accordance with Example 2 at 2 hours before and 4 hours after the challenge. After the challenge, the thickness of the swelling induced ear was measured by a Dial Thickness Gauge (manufactured by Ozaki Seisakusho). The intensity of the reaction was expressed in terms of an increase in the auricle thickness by deducting the thickness (early value) measured before the challenge from the thickness of the swelling induced ear. The suppression rate of the test drug for ear swelling was calculated by the following formula:
Suppression Rate (%)=100 ×[(Ear Thickness Increase of Vehicle-Only-Control)—(Ear Thickness Increase of the Test Group)]/[(Ear Thickness Increase of the Vehicle-Only-Control)—(Ear Thickness Increase of the Challenge-Only-Group)]

[2] = test system: eosinophil infiltration into the antigen-induced ear of a mouse; experiment: Suppressive action against eosinophil infiltration into the antigen-induced ear of a mouse (eosinophil peroxidase activity); format: in vivo, BALB/c female mice; conditions: 3% ointment; ear tissue 24 hours after challenge; compared with positive control
Experimental: as §1
The degree of eosinophil infiltration into the ear of a mouse was determined by measuring eosinophil peroxidase activity in a skin tissue homogenate and using the measurement as an index. […] This homogenate was centrifuged at 20,000 rpm for 20 minutes (using KR-20000T, Kubota) and the peroxidase activity in the supernatant fluid was measured using o-phenylenediamine dihydrochloride (Sigma) as a substrate. By measuring the absorbance of radiation having a wavelength of 492 nm, the resulting reaction curve was substantially linear relative to the dosage of the test drug and the degree of eosinophil infiltration was compared by defining the eosinophil infiltration of the control as 100%.

Which “Ear Thickness Increase at 1 hr after Challenge” value ([1]; Table 1, 1% ointment) does the source give for `Nc1ccc2c(=O)n(Cc3ccccc3)c(=O)n(-c3ccccc3)c2n1` [Compound 1, 7-amino-3-benzyl-1,2,3,4-tetrahydro-1-phenylpyrido[2,3-d]pyrimidin-2,4-dione] here?
Its value is 6.3 ± 1.4 × 0.01 mm.

And the “Suppression Rate of ear thickness increase at 1 hr after Challenge” value ([1]; Table 1, 1% ointment)?
Its value is “(106.1%)”.

And the “Ear Thickness Increase at 4 hr after Challenge” value ([1]; Table 1, 1% ointment)?
Its value is 18.0 ± 0.9 × 0.01 mm.

And the “Suppression Rate of ear thickness increase at 4 hr after Challenge” value ([1]; Table 1, 1% ointment)?
Its value is “(34.0%)”.

And the “Ear Thickness Increase at 8 hr after Challenge” value ([1]; Table 1, 1% ointment)?
Its value is 16.0 ± 0.4 × 0.01 mm.

What about the “Suppression Rate of ear thickness increase at 8 hr after Challenge” value ([1]; Table 1, 1% ointment) of the same molecule?
Its value is “(26.0%)”.

What about the “Ear Thickness Increase at 24 hr after Challenge” value ([1]; Table 1, 1% ointment) of the same molecule?
The value was 9.3 ± 1.1 × 0.01 mm.

What about the “Suppression Rate of ear thickness increase at 24 hr after Challenge” value ([1]; Table 1, 1% ointment) of the same molecule?
The value was “(51.3%)”.

What about the “Ear Thickness Increase at 48 hr after Challenge” value ([1]; Table 1, 1% ointment) of the same molecule?
Its value is 6.8 ± 1.0 × 0.01 mm.

What about the “Suppression Rate of ear thickness increase at 48 hr after Challenge” value ([1]; Table 1, 1% ointment) of the same molecule?
Its value is “(47.8%)”.

What about the “Ear Thickness Increase at 1 hr after Challenge” value ([1]; Table 1, 3% ointment) of the same molecule?
The value was 5.3 ± 0.5 × 0.01 mm.

And the “Suppression Rate of ear thickness increase at 1 hr after Challenge” value ([1]; Table 1, 3% ointment)?
The value was “(136.4%)”.

What about the “Ear Thickness Increase at 4 hr after Challenge” value ([1]; Table 1, 3% ointment) of the same molecule?
Its value is 2.3 ± 0.9 × 0.01 mm.

And the “Suppression Rate of ear thickness increase at 4 hr after Challenge” value ([1]; Table 1, 3% ointment)?
Its value is “(18.4%)”.

What about the “Ear Thickness Increase at 8 hr after Challenge” value ([1]; Table 1, 3% ointment) of the same molecule?
The value was 15.8 ± 1.4 × 0.01 mm.

What about the “Suppression Rate of ear thickness increase at 8 hr after Challenge” value ([1]; Table 1, 3% ointment) of the same molecule?
Its value is “(27.2%)”.

What about the “Ear Thickness Increase at 24 hr after Challenge” value ([1]; Table 1, 3% ointment) of the same molecule?
The value was 7.8 ± 0.9 × 0.01 mm.

What about the “Suppression Rate of ear thickness increase at 24 hr after Challenge” value ([1]; Table 1, 3% ointment) of the same molecule?
Its value is “(61.3%)”.

What about the “Ear Thickness Increase at 48 hr after Challenge” value ([1]; Table 1, 3% ointment) of the same molecule?
Its value is 5.3 ± 0.9 × 0.01 mm.

And the “Suppression Rate of ear thickness increase at 48 hr after Challenge” value ([1]; Table 1, 3% ointment)?
The value was “(64.1%)”.

And the “Ear Thickness Increase at 4 hr after Challenge” value ([1]; Table 2, 0.3% ointment)?
Its value is 20.3 ± 2.4 × 0.01 mm.

What about the “Suppression Rate of ear thickness increase at 4 hr after Challenge” value ([1]; Table 2, 0.3% ointment) of the same molecule?
The value was “(18.7%)”.

And the “Ear Thickess Increase at 24 hr after Challenge” value ([1]; Table 2, 0.3% ointment)?
The value was 13.5 ± 1.3 × 0.01 mm.

And the “Suppression Rate of ear thickness increase at 24 hr after Challenge” value ([1]; Table 2, 0.3% ointment)?
Its value is “(19.4%)”.

What about the “Ear Thickness Increase at 4 hr after Challenge” value ([1]; Table 2, 3% ointment) of the same molecule?
Its value is 13.3 ± 0.3 × 0.01 mm.

What about the “Suppression Rate of ear thickness increase at 4 hr after Challenge” value ([1]; Table 2, 3% ointment) of the same molecule?
Its value is “(49.8%)”.

What about the “Ear Thickess Increase at 24 hr after Challenge” value ([1]; Table 2, 3% ointment) of the same molecule?
Its value is 9.3 ± 1.7 × 0.01 mm.

What about the “Suppression Rate of ear thickness increase at 24 hr after Challenge” value ([1]; Table 2, 3% ointment) of the same molecule?
Its value is “(46.5%)”.

And the “eosinophil infiltration suppressing action” value [2]?
Its value is “same degree as that of the steroid preparation of the positive control”.
